Measured values as given in patent publication US20060110456A1, “Method for biocidal and/or biostatic treatment and compositions therefor” (NATIONAL UNIVERSITY OF SINGAPORE, priority 2004, published 2006).
Structures can show the parent of a compound that is named as a salt.

Experiments:
marine bacteria = assay: Growth assay (absorbance, 96-well plates); assay type: cell-based, marine bacteria isolated from Singapore fouling communities; settings: for Number of strains with strongly inhibited growth / Inhibition of bacterial growth: 25 μg ml^−1; for Number of strains with strongly inhibited growth: 25 strains of Table 5
Description: The dried powder was re-suspended in sterile deionized water and made up to 2 mg ml^−1.
The same bacterial strains were used and cultured the same way as in disc inhibition assay. Cells were harvested by centrifugation at 300 rpm for 10 min. The supernatant was discarded and the pellet re-suspended using sterile seawater collected from St. John's island, Singapore. The concentration of bacterial cells was adjusted to an absorbance of approximately 0.6 using a spectrophotometer (Beckman DU530) at wavelength 600 nm.
The growth with response to the pharmaceuticals was assumed to be proportional to the absorbance of the bacteria. […] To each well 25 μl of each drug solution (concentration adjusted to 100 μg ml^−1) were pipetted into three wells followed by 10 μl of broth and 65 μl of sterile seawater. For wells that were to contain bacteria, 60 μl of sterile seawater was used instead. All wells used for growth studies were prepared in triplicate and inoculated with 5 μl of the bacterial suspension. Blanks consisting of the respective volumes of pharmaceutical with Marine Broth and distilled water, if needed, were prepared in triplicate and inoculated with 5 μl of sterile seawater.
The absorbance (A600) of each well was read in a plate reader (Sunrise Tecan Model F039300) immediately (time=0 hours) and after 1, 2, 3, 4, 20, 23 and 28 hours. Plates were incubated overnight inside a moistened airtight container.
Any changes in absorbance were plotted and compared with control. The mean absorbance (mean bac) from the bacteria was obtained by deducting the absorbance values of blank wells (containing seawater and broth only) from that for the control wells (containing bacteria in seawater and broth only). The absorbance arising from the drugs was obtained from the 0 hr reading for wells containing drugs and bacteria, minus the wells with drugs alone (mean “drug”). The growth assays were repeated three times.

[1] = system: marine bacteria (ten strains); assay: Bio-adhesion assay (crystal violet microplate); assay type: cell-based, marine bacteria isolated from Singapore fouling communities; settings: 50 μl of 125 μg ml^−1 drug + 200 μl bacteria, 2 hours
Description: The effect of pharmaceuticals on bacterial adhesion was analyzed using a modified microplate method adapted from Shea and Williamson (1990). This method consists of staining the attached bacteria with crystal violet, releasing the stain with sodium desoxycholate, and measuring the resulting absorbance of the crystal violet. The absorbance is proportional to the degree of bacterial adhesion to the surface.
Ten strains of bacteria (strain numbers 1, 4, 9, 14, 18, 20, 27, 28, 29 and 30) were chosen for this study. Flat bottom non-tissue culture treated polystyrene (hydrophobic, Falcon #351172) (referred to as polystyrene) and flat bottom tissue culture treated polystyrene (hydrophilic, Falcon #353072) microplates were used in the analyses. These two types of plates were chosen because they were sterile and offered two different kinds of surfaces to determine the adhesion preferences of the bacteria. Each test was done in duplicate. For the control and blank wells, 50 μl of sterile deionized water were added. For those wells that were to contain drugs, 50 μl of drugs at concentration of 125 μg ml^−1 were added. Then 200 μl of bacteria suspension in sterile seawater, whose absorbance had been adjusted to 0.6 at 600 nm using a spectrophotometer (Beckman), were added. Blanks contained 200 μl of sterile seawater.
The bacteria in suspension were allowed to attach for 2 hours at 28° C. Unattached cells were removed by pipetting out almost all trace of liquid and rinsed three times with 300 μl of sterile seawater each time. The attached cells were stained with 200 μl of crystal violet solution (0.1% w/v) in each well for 5 min. After removing the stain by pipetting, the wells were rinsed twice with 300 μl of sterile deionized water each time. Sodium desoxycholate (200 μl) solution (2% w/v) was then added to each well to extract the crystal violet from the stained cells for 10 min. The absorbance of the extracted solution was read at 590 nm using a microplate reader (Sunrise, Tecan, Switzerland).
The data were analyzed using T-test (Two-sample assuming unequal variances) to determine the significance of the absorbance values of each bacterial strain versus the blanks to determine whether there was adhesion, i.e. increase in absorbance. Each drug effect on adhesion was analyzed by comparing the absorbance of each bacterial strain minus the control blank versus bacteria in presence of drug minus the drug control. When the data is significant, there are bacterial cells attached to the surface in the control but in the presence of drugs, there is no attachment.

[2] = system: Balanus amphitrite cyprids; assay: whole plant or invertebrate; settings: for Prevention of settlement of barnacle cyprids: crude rank, best (1) to worst (8)
Description: Pharmaceuticals from the respective manufacturers were treated in the following way. A pill containing a known amount of active ingredient (as stated in product information) was ground in a mortar and pestle and a suspension of 2 mg ml^−1 generated in de-ionized water. This stock solution is stored at −20° C. in 4 ml amber screw cap vials. For the bioassays, 250 ul of stock solution is added to 10 ml of 1 um filtered seawater. This suspension was then sonicated for 10 minutes. Serial dilutions of this 50 μg ml^−1 seawater solution, or suspension, with seawater was done to generate the required range of concentrations.
This method is now standard practice for many antifouling screening of novel compounds.
Barnacle larvae from field-collected adults were reared on an algal mixture of 1:2:2 v/v of Rhodomonas salina, Tetraselmis suecica and Chaetoceros muelleri at 25° C., at approximately 5×10^5 cells per ml density. On this regime, larvae metamorphose to cyprids in 5 days.
Test solutions were made up to twice the required final concentration. 1 ml of test solution was added into each well, and cyprids were transferred into each well in 1 ml of seawater. Assays were done in triplicate. After 24 hours, larvae that had attached and metamorphosed were enumerated and the result expressed as percentage settlement. Larvae not attached were scored as not settled.
The Therapeutic Ratio, or LC50/EC50, is a way of assessing the effectiveness of the compound in relation to its toxicity. […] LC50 and EC50 estimates and the therapeutic ratio should be considered as working values providing an estimation of potency, rather than as absolutes.

[3] = strain 1 (Rhodovulum), hydrophobic surface (untreated polystyrene)
[4] = strain 9 (Bacillus), hydrophobic surface (untreated polystyrene)

## CN1CCN(CCCN2c3ccccc3Sc3ccc(Cl)cc32)CC1 [PCZ, prochlorperazine maleate]
Marine bacteria
  Number of strains with strongly inhibited growth: 11
Marine bacteria; 25 μg ml−1, strain named in the value
  Growth response (absorbance over time): slight growth response of bacteria strain 11
Marine bacteria; strain 1 (Rhodovulum)
  Inhibition of bacterial growth: 0
Marine bacteria; strain 2 (Erythrobacter)
  Inhibition of bacterial growth: 0
Marine bacteria; strain 3 (Erythrobacter)
  Inhibition of bacterial growth: +++ (+++ denotes little or no growth, p < 0.001)
Marine bacteria; strain 4 (Bacillus)
  Inhibition of bacterial growth: +++ (+++ denotes little or no growth, p < 0.001)
Marine bacteria; strain 6 (Vibrio)
  Inhibition of bacterial growth: 0
Marine bacteria; strain 7 (Vibrio)
  Inhibition of bacterial growth: + (+ denotes growth present but inhibited, p < 0.01)
Marine bacteria; strain 8 (Bacillus)
  Inhibition of bacterial growth: +++ (+++ denotes little or no growth, p < 0.001)
Marine bacteria; strain 9 (Bacillus)
  Inhibition of bacterial growth: +++ (+++ denotes little or no growth, p < 0.001)
Marine bacteria; strain 10 (Halobacillus)
  Inhibition of bacterial growth: +++ (+++ denotes little or no growth, p < 0.001)
Marine bacteria; strain 11 (Pseudomonas)
  Inhibition of bacterial growth: + (+ denotes growth present but inhibited, p < 0.01)
Marine bacteria; strain 12 (Gordonia)
  Inhibition of bacterial growth: +++ (+++ denotes little or no growth, p < 0.001)
Marine bacteria; strain 13 (Bacillus)
  Inhibition of bacterial growth: +++ (+++ denotes little or no growth, p < 0.001)
Marine bacteria; strain 14 (Vibrio)
  Inhibition of bacterial growth: 0
Marine bacteria; strain 16 (Pseudoalteromonas)
  Inhibition of bacterial growth: 0
Marine bacteria; strain 17 (Gordonia)
  Inhibition of bacterial growth: +++ (+++ denotes little or no growth, p < 0.001)
Marine bacteria; strain 18 (Microbacterium)
  Inhibition of bacterial growth: +++ (+++ denotes little or no growth, p < 0.001)
Marine bacteria; strain 19 (Erythrobacter)
  Inhibition of bacterial growth: +++ (+++ denotes little or no growth, p < 0.001)
Marine bacteria; strain 20
  Inhibition of bacterial growth: + (+ denotes growth present but inhibited, p < 0.01)
Marine bacteria; strain 21
  Inhibition of bacterial growth: 0
Marine bacteria; strain 24
  Inhibition of bacterial growth: 0
Marine bacteria; strain 26
  Inhibition of bacterial growth: 0
Marine bacteria; strain 27
  Inhibition of bacterial growth: + (+ denotes growth present but inhibited, p < 0.01)
Marine bacteria; strain 28
  Inhibition of bacterial growth: 0
Marine bacteria; strain 29
  Inhibition of bacterial growth: + (+ denotes growth present but inhibited, p < 0.01)
Marine bacteria; strain 30
  Inhibition of bacterial growth: +++ (+++ denotes little or no growth, p < 0.001)
[1]; [3]
  Effect of drugs on adhesion of bacteria: * (Significantly less adhesion observed: * p < 0.05)
[1]; strain 4 (Bacillus), hydrophilic surface (tissue culture treated polystyrene)
  Effect of drugs on adhesion of bacteria: * (Significantly less adhesion observed: * p < 0.05)
[1]; strain 4 (Bacillus), hydrophobic surface (untreated polystyrene)
  Effect of drugs on adhesion of bacteria: * (Significantly less adhesion observed: * p < 0.05)
[1]; [4]
  Effect of drugs on adhesion of bacteria: * (Significantly less adhesion observed: * p < 0.05)
[1]; strain 30, hydrophobic surface (untreated polystyrene)
  Effect of drugs on adhesion of bacteria: * (Significantly less adhesion observed: * p < 0.05)
[2]; Amphibalanus amphitrite, 24 h, read-out: ED50
  IC50: 0.174 µg/mL
[2]
  Prevention of settlement of barnacle cyprids: 2

## CNCCC(Oc1ccc(C(F)(F)F)cc1)c1ccccc1 (stereo not drawn) [PZC, fluoxetine hydrochloride]
Marine bacteria
  Number of strains with strongly inhibited growth: 3
Marine bacteria; strain 1 (Rhodovulum)
  Inhibition of bacterial growth: 0
Marine bacteria; strain 2 (Erythrobacter)
  Inhibition of bacterial growth: + (+ denotes growth present but inhibited, p < 0.01)
Marine bacteria; strain 3 (Erythrobacter)
  Inhibition of bacterial growth: + (+ denotes growth present but inhibited, p < 0.01)
Marine bacteria; strain 4 (Bacillus)
  Inhibition of bacterial growth: 0
Marine bacteria; strain 6 (Vibrio)
  Inhibition of bacterial growth: 0
Marine bacteria; strain 7 (Vibrio)
  Inhibition of bacterial growth: + (+ denotes growth present but inhibited, p < 0.01)
Marine bacteria; strain 8 (Bacillus)
  Inhibition of bacterial growth: + (+ denotes growth present but inhibited, p < 0.01)
Marine bacteria; strain 9 (Bacillus)
  Inhibition of bacterial growth: + (+ denotes growth present but inhibited, p < 0.01)
Marine bacteria; strain 10 (Halobacillus)
  Inhibition of bacterial growth: +++ (+++ denotes little or no growth, p < 0.001)
Marine bacteria; strain 11 (Pseudomonas)
  Inhibition of bacterial growth: + (+ denotes growth present but inhibited, p < 0.01)
Marine bacteria; strain 12 (Gordonia)
  Inhibition of bacterial growth: + (+ denotes growth present but inhibited, p < 0.01)
Marine bacteria; strain 13 (Bacillus)
  Inhibition of bacterial growth: + (+ denotes growth present but inhibited, p < 0.01)
Marine bacteria; strain 14 (Vibrio)
  Inhibition of bacterial growth: 0
Marine bacteria; strain 16 (Pseudoalteromonas)
  Inhibition of bacterial growth: 0
Marine bacteria; strain 17 (Gordonia)
  Inhibition of bacterial growth: +++ (+++ denotes little or no growth, p < 0.001)
Marine bacteria; strain 18 (Microbacterium)
  Inhibition of bacterial growth: + (+ denotes growth present but inhibited, p < 0.01)
Marine bacteria; strain 19 (Erythrobacter)
  Inhibition of bacterial growth: + (+ denotes growth present but inhibited, p < 0.01)
Marine bacteria; strain 20
  Inhibition of bacterial growth: + (+ denotes growth present but inhibited, p < 0.01)
Marine bacteria; strain 21
  Inhibition of bacterial growth: 0
Marine bacteria; strain 24
  Inhibition of bacterial growth: 0
Marine bacteria; strain 26
  Inhibition of bacterial growth: 0
Marine bacteria; strain 27
  Inhibition of bacterial growth: + (+ denotes growth present but inhibited, p < 0.01)
Marine bacteria; strain 28
  Inhibition of bacterial growth: 0
Marine bacteria; strain 29
  Inhibition of bacterial growth: + (+ denotes growth present but inhibited, p < 0.01)
Marine bacteria; strain 30
  Inhibition of bacterial growth: +++ (+++ denotes little or no growth, p < 0.001)
[1]; [3]
  Effect of drugs on adhesion of bacteria: * (Significantly less adhesion observed: * p < 0.05)
[1]; [4]
  Effect of drugs on adhesion of bacteria: * (Significantly less adhesion observed: * p < 0.05)
[2]
  Prevention of settlement of barnacle cyprids: 7
